Results reported in patent US20240018132A1, “5-HYDROXY-1,4-NAPHTHALENEDIONE FOR USE IN THE TREATMENT OF CANCER” (GODAVARI BIOREFINERIES LIMITED, priority 2020, published 2024).

Key:
MDAMB231 [1] = assay: In vitro antiproliferative assay (MTT assay), breast cancer cell line; type: cell-based; conditions: Homo sapiens
Experimental: (§1) MTT assay is a simple and sensitive assay where, metabolic reducing activity of the cells is measured. The increase of this activity in time is taken as a parameter of cell growth. If treatment with a drug impairs this increase, the action is a consequence of growth inhibition, cell killing or both. […] All cell lines were cultured in a 37° C. incubator with a 5% CO2 environment. Compounds were dissolved in DMSO with a concentration of 0.1M (stock solution). Cells were seeded into 96-well plates at suitable plating efficiency.
(§2) Following plating efficiencies were standardized for MTT assay:
(§3) In the MTT procedure, the cells were plated in 96 well plates as per predetermined plating efficiency (Table1). The plates were then incubated for 24 hrs in 5% CO2 atmosphere at 37° C. Appropriate concentrations of the drugs were then added to the plate and further incubation was carried out for 48 hrs (in 5% CO2 atmosphere at 37° C.). The assay plate was then centrifuged twice at 3000 rpm for 3 mins and supernatant was then discarded. 100 ul of MTT solution (0.5 mg/ml) was then added to each well of the plate and it was further incubated for 4 hrs (in 5% CO2 atmosphere at 37° C.) Following 4 hr incubation, the plate was then centrifuged twice, and supernatant was aspirated off very carefully. 200 ul of DMSO was then added to each well to solubilize. MTT crystals and mixed well by shaking the plate. XY graph of log percent viability was then plotted against log drug concentration.

PC3 [2] = assay: In vitro antiproliferative assay (MTT assay), prostate cancer cell line; type: cell-based; conditions: Homo sapiens
Experimental: as §1, §2, §3

MDAMB231 [3] = assay: In vitro sphere-forming assay (cancer stem cells), Mammosphere media; conditions: for viability at 0.025 µM / viability at 0.25 µM / viability at 2.5 µM / viability at 25 µM / viability at 250 µM / viability at 0.0025 µM: Homo sapiens, MDA-MB-231, read-out: % Viability of spheres (MDAMB231); for 3D sphere count of MDAMB231: Mammosphere media, 2000 cells/well, n = 6 ± S.D
Experimental: (§4) In Vitro Sphere-forming Assay: Sphere assay measures the ability of cancer stem cells (CSCs) to form spheres in specially designed serum-free medium.
Mammosphere Media Preparation (For 100 mL): 1 g methyl cellulose autoclaved with magnetic stirrer, 100 ml plain media (MEBM) was added and dissolved under magnetic stirring. After complete dissolution FGF-80 μL, EGF-40 μL, Penstrep-1 mL, Heparin-400 μL was added.
(§5) Procedure—The cells were trypsinised and made into single-cell suspension by passing through cell strainers (100 μl and 40 μl, respectively), The cells were diluted at a concentration of 2000 cells/100 μL and suspended in either Mammosphere (for breast cell lines) or Prostosphere (for prostate cell lines). 100 μL of this suspension was added into each well of 96-well suspension plates and incubated at 37° C., 5% CO2 for 24 hrs. Appropriate concentrations of the drugs (2 μL) were added into respective wells with 100 μL of stem cell culture medium. Plates were incubated at 37° C., 50 CO2 for 72 hrs. After incubation, 2.5 μL of the respective drug concentration and 50 μL of stem cell culture medium were added into each well and the plates were further incubated at 37° C., 50% CO2 for 72 hrs. 3 μL of the respective drug concentration was added with 50 μL of stem cell culture medium again after incubation and plates were reincubated for 72 hrs at 37° C., 50 CO2. Number of primary spheres formed for each concentration were counted. The spheres were converted to 0 viability of spheres compared to untreated (Growth Control with DMSO, GCD).

PC3 [4] = assay: In vitro sphere-forming assay (cancer stem cells), Prostosphere media; conditions: for viability at 0.025 µM / viability at 0.25 µM / viability at 2.5 µM / viability at 25 µM / viability at 250 µM / viability at 0.0025 µM: Homo sapiens, PC-3, read-out: % Viability of spheres (PC3); for 3D sphere count of PC3: Prostosphere media, 2000 cells/well, n = 6 ± S.D
Experimental: as §4
Prostosphere Media Preparation (For 100 mL):1 g methyl cellulose autoclaved with magnetic stirrer, 100 mL plain media (Prostate Epithelial Basal Medium) was added and dissolved, under magnetic stirring. After complete dissolution, Insulin-40 μL, B27-2 mL, EGF-80 μL, Penstrep-1 ml was added.
as §5

[5] = MDA-MB-231, 48 h, MTT assay, breast cancer MDAMB231, 48 hrs drug incubation
[6] = PC-3, 48 h, MTT assay, prostate cancer PC3, 48 hrs drug incubation
[7] = MDA-MB-231, MTT assay, MDAMB231

Row | SMILES | IC50 (MDAMB231 [1]; [5]) [nM] | IC50 (PC3 [2]; [6]) [nM] | viability at 0.025 µM (MDAMB231 [3]) [%] | viability at 0.25 µM (MDAMB231 [3]) [%] | viability at 2.5 µM (MDAMB231 [3]) [%] | viability at 25 µM (MDAMB231 [3]) [%] | 3D sphere count of MDAMB231 (MDAMB231 [3]; drug 0.025 uM) | 3D sphere count of MDAMB231 (MDAMB231 [3]; drug 0.25 uM) | 3D sphere count of MDAMB231 (MDAMB231 [3]; drug 2.5 uM) | 3D sphere count of MDAMB231 (MDAMB231 [3]; drug 25 uM) | viability at 0.025 µM (PC3 [4]) [%] | viability at 0.25 µM (PC3 [4]) [%] | viability at 2.5 µM (PC3 [4]) [%] | viability at 25 µM (PC3 [4]) [%] | 3D sphere count of PC3 (PC3 [4]; drug 0.025 uM) | 3D sphere count of PC3 (PC3 [4]; drug 0.25 uM) | 3D sphere count of PC3 (PC3 [4]; drug 2.5 uM) | 3D sphere count of PC3 (PC3 [4]; drug 25 uM) | viability at 0.0025 µM (MDAMB231 [3]) [%] | 3D sphere count of MDAMB231 (MDAMB231 [3]; drug 0.0025 uM) | also measured
1 | COc1ccc(NC2=CC(=O)c3c(OCCN4CCOCC4)cccc3C2=O)cc1 [Formula 37, 5-(2-morpholinoethoxy)-2-(4-methoxyphenylamino) naphthalene-1,4-dione] | 4610 | 4440 | 82 | 66 | 56 | 39 | 82(±4) | 66(±5) | 56(±4) | 39(±3) | 89 | 69 | 56 | 37 | 89(±3) | 69(±3) | 56(±4) | 37(±4) |  |  | viability at 250 µM (MDAMB231 [3]): 23%; 3D sphere count of MDAMB231 (MDAMB231 [3]; drug 250 uM): 23(±3); viability at 250 µM (PC3 [4]): 20%; 3D sphere count of PC3 (PC3 [4]; drug 250 uM): 20(±4)
2 | O=C1C(Oc2ccc3c(c2)OCO3)=CC(=O)c2c(OCCCCN3CCOCC3)cccc21 [Formula 47, 5-(4-morpholinobutoxy)-2-(benzo[d][1,3]dioxol-5-yloxy)naphthalene-1,4-dione] | 970 | 582 | 59 | 43 | 27 | 17 | 53(±3) | 39(±3) | 25(±5) | 16(±3) | 57 | 43 | 28 | 18 | 46(±4) | 35(±3) | 23(±3) | 15(±3) | 78 | 71(±2) | viability at 0.0025 µM (PC3 [4]): 77%; 3D sphere count of PC3 (PC3 [4]; drug 0.0025 uM): 62(±4)
3 | O=C1C(Oc2ccc(F)c(F)c2)=CC(=O)c2c(OCCN3CCOCC3)cccc21 [Formula 76] | 2480 | 324 | 67 | 56 | 40 | 29 | 61(±2) | 51(±3) | 36(±3) | 26(±4) | 72 | 55 | 38 | 28 | 58(±4) | 44(±4) | 31(±3) | 23(±3) | 82 | 74(±3) | viability at 0.0025 µM (PC3 [4]): 86%; 3D sphere count of PC3 (PC3 [4]; drug 0.0025 uM): 69(±3)
4 | COc1ccc(OC2=CC(=O)c3c(OCCN4CCCCC4)cccc3C2=O)cc1 [Formula 84] |  |  |  |  |  |  |  |  |  |  |  |  |  |  |  |  |  |  |  |  | IC50 (MDAMB231 [1]; [7]): 562 nM; IC50 (PC3 [2]; PC-3, MTT assay, PC3): 492 nM
5 | COc1ccc(OC2=CC(=O)c3c(OCCCCN4CCOCC4)cccc3C2=O)cc1 [Formula 85] |  |  |  |  |  |  |  |  |  |  |  |  |  |  |  |  |  |  |  |  | IC50 (MDAMB231 [1]; [7]): 4140 nM; IC50 (PC3 [2]; PC-3, MTT assay, PC3): 2360 nM

Further molecules by falling IC50 (MDAMB231 [1]; [5]), results first:

Row | IC50 (MDAMB231 [1]; [5]) [nM] | IC50 (PC3 [2]; [6]) [nM] | SMILES | viability at 0.025 µM (MDAMB231 [3]) [%] | viability at 0.25 µM (MDAMB231 [3]) [%] | viability at 2.5 µM (MDAMB231 [3]) [%] | viability at 25 µM (MDAMB231 [3]) [%] | 3D sphere count of MDAMB231 (MDAMB231 [3]; drug 0.025 uM) | 3D sphere count of MDAMB231 (MDAMB231 [3]; drug 0.25 uM) | 3D sphere count of MDAMB231 (MDAMB231 [3]; drug 2.5 uM) | 3D sphere count of MDAMB231 (MDAMB231 [3]; drug 25 uM) | viability at 0.025 µM (PC3 [4]) [%] | viability at 0.25 µM (PC3 [4]) [%] | viability at 2.5 µM (PC3 [4]) [%] | viability at 25 µM (PC3 [4]) [%] | 3D sphere count of PC3 (PC3 [4]; drug 0.025 uM) | 3D sphere count of PC3 (PC3 [4]; drug 0.25 uM) | 3D sphere count of PC3 (PC3 [4]; drug 2.5 uM) | 3D sphere count of PC3 (PC3 [4]; drug 25 uM) | viability at 0.0025 µM (MDAMB231 [3]) [%] | 3D sphere count of MDAMB231 (MDAMB231 [3]; drug 0.0025 uM) | also measured
6 | 2220 | 269 | COc1ccc(OC2=CC(=O)c3c(OCCCN4CCOCC4)cccc3C2=O)cc1 [Formula 77] | 70 | 53 | 40 | 30 | 63(±5) | 48(±3) | 36(±4) | 27(±3) | 68 | 51 | 36 | 26 | 55(±3) | 41(±3) | 29(±6) | 21(±3) | 82 | 74(±4) | viability at 0.0025 µM (PC3 [4]): 80%; 3D sphere count of PC3 (PC3 [4]; drug 0.0025 uM): 64(±3)
7 | 1370 | 1350 | O=C1C(Oc2ccc3c(c2)OCO3)=CC(=O)c2c(OCCN3CCOCC3)cccc21 [Formula 46, 5-(2-morpholinoethoxy)-2-(benzo[d][1,3]dioxol-5-yloxy)naphthalene-1,4-dione] | 60 | 49 | 32 | 20 | 54(±4) | 44(±4) | 29(±3) | 18(±3) | 67 | 51 | 36 | 22 | 54(±4) | 41(±3) | 29(±3) | 18(±3) | 74 | 67(±5) | viability at 0.0025 µM (PC3 [4]): 82%; 3D sphere count of PC3 (PC3 [4]; drug 0.0025 uM): 66(±3)
8 | 566 | 306 | O=C1C(Oc2ccc(F)cc2)=CC(=O)c2c(OCCN3CCOCC3)cccc21 [Formula 75, 5-(2-morpholinoethoxy)-2-(4-fluorophenoxy) naphthalene-1,4-dione] | 56 | 45 | 32 | 17 | 45(±3) | 36(±4) | 26(±3) | 14(±3) | 57 | 47 | 33 | 20 | 46(±4) | 38(±3) | 27(±3) | 16(±2) | 80 | 64(±3) | viability at 0.0025 µM (PC3 [4]): 82%; 3D sphere count of PC3 (PC3 [4]; drug 0.0025 uM): 66(±4)
9 | 451 | 246 | O=C1C(c2ccc(F)cc2)=CC(=O)c2c(OCCN3CCOCC3)cccc21 [Formula 7, 5-(2-morpholinoethoxy)-2-(4-fluorophenyl) naphthalene-1,4-dione] | 83 | 60 | 43 | 31 | 59(±3) | 43(±3) | 31(±3) | 22(±3) | 71 | 50 | 35 | 21 | 57(±3) | 40(±3) | 28(±2) | 17(±3) |  |  | viability at 250 µM (MDAMB231 [3]): 15%; 3D sphere count of MDAMB231 (MDAMB231 [3]; drug 250 uM): 11(±3); viability at 250 µM (PC3 [4]): 11%; 3D sphere count of PC3 (PC3 [4]; drug 250 uM): 9(±2)
10 | 109 | 225 | O=C1C(Oc2ccc(F)cc2F)=CC(=O)c2c(OCCN3CCOCC3)cccc21 [Formula 74] | 48 | 35 | 27 | 12 | 39(±3) | 29(±3) | 22(±4) | 10(±2) | 56 | 41 | 27 | 17 | 45(±2) | 36(±4) | 24(±4) | 15(±3) | 73 | 60(±3) | viability at 0.0025 µM (PC3 [4]): 73%; 3D sphere count of PC3 (PC3 [4]; drug 0.0025 uM): 64(±6)
